Measured values from patent US12398093B2, “Compounds and methods for treating inflammatory disorders” (Board of Supervisors of Louisiana State University and …, priority 2019, dated 2025).

Experiments:
[1] = system: adult male Brown Norway rats; assay: Ovalbumin allergic asthma model, whole body plethysmography (ΔPenh) after methacholine challenge; format: in vivo; conditions: rats, nebulized inhaled drug
Excerpt: (§1) A modification of the ovalbumin model of allergic asthma and whole body plethysmography protocol as described in Nau et al. (Am. J. Physiol. Lung Cell Mol. Physiol. 2015, 308(2): L191-L198; incorporated herein by reference) was used to determine ΔPenh, a measure of airways hyperresponsiveness (AHR), in response to methacholine challenge in adult male Brown Norway rats. Results, shown in FIGS. 2A-2G, represent PenH change measured in the ovalbumin allergic asthma assay in rats, with the exception of FIG. 2C, which was measured in mice, for nebulized inhaled drug. Statistics were performed using 2-way ANOVA with Tukey post hoc test for multiple comparisons.
Allergic asthma is defined as a chronic inflammatory disorder of the airways. This disease is characterized by airway inflammation, persistent airways AHR and intermittent, reversible airways obstruction.
Area under the curve of PenH values (PenH-AUC) in response to incremental doses of metacholine were calculated for each testing groups, naïve, OVA treated, and OVA+DRUG treated animals. A reduction in PenH-AUC values of more than 75% of the control values (OVA alone) was annotated as a strong efficacy. […] Additional to this information are provided the relative to R-DOI EC50 values (ratio) of tested compounds in 5-HT2AR heterologous cell-based calcium transient assay. […] FIG. 3 illustrates the non-correlative nature of the therapeutic efficacy of the phenylethylamines class of compounds against inflammatory-mediated allergen-induced AHR and the reported evidences of the dose necessary for psychoactive disturbances experienced with these compounds in humans or the potency and strength of these compounds to the 5-HT2AR in calcium transients assays.
Inhibition of ΔPenh as a function of 2C-iBu concentration was studied by nebulization nose-only administration of 2C-iBu to male adult Brown Norway rats as described above. Area under the curve for each treatment group at a given dose of 2C-iBu for ΔPenh is plotted on the Y-axis versus concentration of 2C-iBu on the X-axis.

5-HT2AR-Tango construct = target: T1, 5-HT2AR-Tango construct (Homo sapiens, UniProt P28223); assay: β-arrestin-2 recruitment, PRESTO-Tango assay in HTLA cells; format: cell-based; conditions: for pEC50 beta arrestin recruitment / EMAX (%) beta arrestin recruitment: Table 5; for EMAX (%) beta arrestin recruitment: percentage of 5-HT response
T1 construct: expressed in transfected cells; host or cells: HTLA cells (transient transfection)
T1 sequence (P28223 whole entry, added parts left off): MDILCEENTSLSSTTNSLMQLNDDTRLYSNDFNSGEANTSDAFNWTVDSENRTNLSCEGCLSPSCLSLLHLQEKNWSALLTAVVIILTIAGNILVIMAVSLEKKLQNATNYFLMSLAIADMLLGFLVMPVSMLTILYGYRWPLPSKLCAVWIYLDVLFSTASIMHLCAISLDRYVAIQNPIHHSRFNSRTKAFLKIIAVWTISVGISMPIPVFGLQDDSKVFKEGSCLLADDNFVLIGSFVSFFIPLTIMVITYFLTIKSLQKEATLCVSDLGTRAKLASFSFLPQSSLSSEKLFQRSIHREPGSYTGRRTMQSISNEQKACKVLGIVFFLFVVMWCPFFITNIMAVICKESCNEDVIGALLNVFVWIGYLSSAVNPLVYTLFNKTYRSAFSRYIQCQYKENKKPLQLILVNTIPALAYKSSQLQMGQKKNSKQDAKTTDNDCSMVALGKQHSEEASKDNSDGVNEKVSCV
T1 sequence (P32121 whole entry partner): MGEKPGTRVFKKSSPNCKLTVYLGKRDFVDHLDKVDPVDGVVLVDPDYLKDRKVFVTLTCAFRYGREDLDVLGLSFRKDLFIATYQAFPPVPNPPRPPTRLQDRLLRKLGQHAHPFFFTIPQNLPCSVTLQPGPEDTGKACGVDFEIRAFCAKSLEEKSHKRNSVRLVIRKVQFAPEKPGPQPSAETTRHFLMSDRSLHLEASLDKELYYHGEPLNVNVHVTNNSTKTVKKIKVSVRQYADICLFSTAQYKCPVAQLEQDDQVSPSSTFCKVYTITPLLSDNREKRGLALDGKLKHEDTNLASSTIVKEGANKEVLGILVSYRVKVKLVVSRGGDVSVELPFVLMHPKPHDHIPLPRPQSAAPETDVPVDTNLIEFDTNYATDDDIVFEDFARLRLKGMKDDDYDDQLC

human 5-HT2A receptor = target: T2, human 5-HT2A receptor (Homo sapiens, UniProt P28223); assay: Gq-mediated calcium transients (calcium mobilization), Fluo-4, HEK cells; format: cell-based; conditions: for pEC50 calcium mobilization / EMAX (%) calcium mobilization: Table 4; for EMAX (%) calcium mobilization: percentage of 5-HT response; for Emax: HEK293, read-out: EMAX (%) calcium mobilization
T2 construct: expressed in transfected cells
T2 sequence (P28223 whole entry): as the sequence (P28223 whole entry, added parts left off) above

mice = assay: Ovalbumin allergic asthma assay (PenH), nebulized inhaled drug, mice (FIG. 2C); format: in vivo; conditions: 1.0 mg/kg (FIG. 2C)
Excerpt: as §1

SMILES	EMAX (%) beta arrestin recruitment (5-HT2AR-Tango construct) [%]	pEC50 calcium mobilization (human 5-HT2A receptor)	EMAX (%) calcium mobilization (human 5-HT2A receptor) [%]	further results
Cl.NCCc1c2c(c(Br)c3c1OCC3)OCC2 [2C-B-Fly.HCl]				Prevention of AHR (ΔPenh/PenH) in response to OVA ([1]; 0.5 mg/kg): significant difference from OVA to naive, and from 2C-B-Fly.HCl+OVA to naive
COc1cc(CCN)c(OC)cc1Br [2C-B]	39.46	8.11	78.00	pEC50 beta arrestin recruitment (5-HT2AR-Tango construct): 5.99
COc1ccc(OC)c(CCN)c1 [2C-H]	10.98	6.34	69.50	pEC50 beta arrestin recruitment (5-HT2AR-Tango construct): 7.07
COc1cc(CCN)c(OC)cc1I [2C-I]		8.14	72.80	
COc1cc(CC(C)(C)C)c(OC)cc1CCN [2C-NP]				EC50 (human 5-HT2A receptor): 155 nM; Emax (human 5-HT2A receptor): 76%
COc1cc(C(C)C)c(OC)cc1CCN [2C-iP]	3.46	7.59	52.07	pEC50 beta arrestin recruitment (5-HT2AR-Tango construct): 7.8
COc1cc(CCNCc2ccccc2OC)c(OC)cc1I [25I-NBOMe]				Prevention of AHR (ΔPenh/PenH) in response to OVA ([1]; 1.0 mg/kg): reduced potency
COc1cc(CC(C)N)c(OC)cc1Br (stereo not drawn) [DOB]				Prevention of AHR (PenH) in response to OVA (mice): did not reduce potency
COc1cc(C(F)(F)F)c(OC)cc1CC(C)N (stereo not drawn) [DOTFM]				Prevention of AHR (ΔPenh/PenH) in response to OVA ([1]; 0.5 mg/kg): significant difference from OVA+DOTFM to naive
COc1cc(CC(C)N)c(OC)cc1CC(C)C (stereo not drawn) [DOiBu]				EC50 (5-HT2AR-Tango construct): 5.89 nM; Emax (5-HT2AR-Tango construct; HTLA, read-out: EMAX (%) beta arrestin recruitment): 70.2%; EC50 (human 5-HT2A receptor): 4.47 nM; Emax (human 5-HT2A receptor): 90.6%
COc1cc(C(C)C)c(OC)cc1CC(C)N (stereo not drawn) [DOiP]	20.40	8.29	73.17	pEC50 beta arrestin recruitment (5-HT2AR-Tango construct): 8.24
COc1ccc(OC)c(C[C@@H](C)N)c1 [R-2,5-DMA]	65.51		108.38	
COc1cc(C[C@@H](C)N)c(OC)cc1Br [R-DOB]	98.14		79.80	
COc1cc(Br)c(OC)c2c1[C@H](CN)C2 [TCB-2]				Prevention of AHR (ΔPenh/PenH) in response to OVA ([1]; 0.5 mg/kg): reduced PenH, it was still significantly elevated over naive controls
